Laboratory results as given in patent US20130267422A1, “COMPOSITION FOR CONTROLLING PLANT DISEASES COMPRISING 3-PENTANOL AS EFFECTIVE COMPONENT” (Korea Research Institute Of Bioscience And Biotechnology, priority 2010, published 2013).

What was measured:
Assay type in all cases: in vivo
[1] = test system: Xanthomonas axonopodis pv. vesicatoria; experiment: ISR under field conditions, bacterial spot disease in pepper; conditions: for disease level (ISR against bacterial spot disease): 1 mM 3-pentanol; for resistance to the disease (bacterial spot): additional 3-pentanol treatment
Procedure: FIGS. 2A and 2B illustrate the effect of 3-pentanol on plant ISR against Xanthomonas axonopodis pv. vesicatoria under field conditions at different time points. The ISR effect of 3-pentanol was measured on Day 10, Day 20, Day 30, and Day 40 after seedling transplantation. The positive control plant was treated with 0.5 mM BTH. The disease occurrence rate (i.e., 0 to 5) as an indicator of ISR was measured on Day 10 following inoculation of pathogen.
3-Pentanol, having shown ISR properties, was used for subsequent direct applications. Pepper seeds were purchased from Heungnong Jongmyo (breed; Bugang). The surface of the seeds were sterilized for 5 minutes using 1% sodium hypochlorite and rinsed with sterilized water for 5 min. The surface sterilized seeds were allowed to germinate on MS medium containing an appropriate amount of moisture. Germinated seeds, without m having any contamination, were planted in a 50-hole pot (28×54×6 cm) filled with soil for horticultural use (Punong Co., Ltd, Korea) and cultivated for six weeks in a greenhouse at 20 to 30° C. Six weeks after seeding and upon growth of seven to eight main leaves, 1 mM 3-pentanol was diluted to a volume of about 3 liters with sterilized water and poured into the 50-hole pot dish. In order to have effective soaking of the immersion solution in the soil and roots of the plant, immersion was carried out over about 24 hours. After 24-hour immersion, the young pepper plants were transplanted into a field (i.e., Chungyong-Li, Gaduk-Myon, Chungwon-Gun, Chungchongbuk-Do, South Korea 36°32′27.26″ North and 127°33′07.81″ East). The burrow to burrow distance was 1.2 m and the field was about 12.5 m to ensure the treatment areas were evenly mixed with each other. Twenty days after the final transplantation into the field, a secondary application of 1 mM 3-pentanol diluted to a volume of about 3 liters with sterilized water, was applied as 100 mL irrigation treatments for each. The test method used was as follows: after final transplantation, using a syringe, Xanthomonas axonopodis pv. vesicatoria at the concentration of 10^7 CFU/ml was exposed to the backside of the pepper leaf at intervals of 10 days until Day 40. Responses were then examined seven to ten days after exposure. The bacterial inoculant has been cultured for 48 hours at 30° C. after adding antibiotics of Rifampicin (100 μg/ml) to a solid medium. The control group received zero treatment and the treatment group received four applications. The disease occurrence rate was determined based on comparison and observation at 10 day intervals until Day 40. The severity of symptoms was scored as in Yang et al. 2009, Plant Pathol. […]

PR1 and PR4 genes = experiment: Expression analysis of resistance genes by qRT-PCR; conditions: pepper leaf, six hours after inoculation of pathogen
Procedure: FIGS. 3A through 3D illustrate expression of the defense-related genes PR1 and PR4 induced by 3-pentanol following inoculation of pathogen to pepper. Expression of the defense signal transduction related genes PR1 and PR4 at 10 dpt (FIG. 3A), 20 dpt (FIG. 3B), 30 dpt (FIG. 3C), and 40 dpt (FIG. 3D) was determined by quantitative RT-PCR. Relative RNA levels were calibrated and normalized to the level of CaActin mRNA. The samples were collected 6 hours post inoculation of pathogen. The positive control group plant was treated with BTH.
Expression of PR1 and PR4 genes related to the disease resistance of pepper were examined based on quantitative real time-polymerase chain reaction (qRT-PCR). The sequences of the primers used are as follows.
Following bacterial exposure to the backside of a pepper leaf, the pepper leaf was cut using scissors at 0 hours and at 6 hours and stored in liquid nitrogen. RNA isolation began with the pepper leaf being ground in liquid nitrogen using a mortar and pestle, The RNA was then extracted from the pepper leaf by using TRIzol Reagent (Invitrogen Life Technologies). […]

cucumber mosaic virus = experiment: ISR against naturally occurring cucumber mosaic virus disease under field conditions; conditions: pepper, three months after final transplantation, versus control group
Excerpt: (§1) FIGS. 5A through 5C illustrate the effect of 3-pentanol on ISR against naturally occurring plant diseases under field conditions. FIG. 5A illustrates the effect of 3-pentanol on cucumber mosaic virus (CMV) disease three months after the treatment, FIG. 5B illustrates the symptoms of the viral disease (the photographic image was taken three months after the naturally occurring plant disease), and FIG. 5C illustrates the effect of 3-pentanol on bacterial leaf spot disease three months after treatment. The positive control group plant was treated with 0.5 mM BTH. The disease occurrence rate (i.e., 0 to 5) as an indicator of ISR was measured three months after transplantation (i.e., 0: no symptoms; 5: severe symptoms of necrosis).
(§2) 3-Pentanol, having shown ISR properties, was used for subsequent direct applications. Pepper seeds were purchased from Heungnong Jongmyo (breed; Bugang). The surface of the seeds were sterilized for 5 minutes using 1% sodium hypochlorite and rinsed with sterilized water for 5 min. The surface sterilized seeds were allowed to germinate on MS medium containing an appropriate amount of moisture. […] The disease occurrence rate was determined based on comparison and observation at 10 day intervals until Day 40. The severity of symptoms was scored as in Yang et al. 2009, Plant Pathol. […]

aphids = experiment: Aphid infestation of cucumber, naturally occurring aphids; conditions: 1 mM soil drench, 34 dps
Excerpt: FIGS. 8A and 8B illustrate that 3-pentanol confers induced resistance against aphids in cucumber: (a), Nymph number; (b), Adult number. Bars represent the mean±SE (sample size, n=12 replications per treatment).
Cucumber plants (Cucumis sativus L. cv. backdadagi) were cultivated in an open field under natural conditions. For greenhouse experiments, seeds were directly planted in pots containing soilless medium (Punong Co. Ltd., Gyeongju, Korea) in a 24 hole plug tray under greenhouse condition. The germinated seedlings were transplanted into large pots (diameter=30 cm; height=30 cm). Chemical treatments to elicit induced resistance in cucumber were carried out. Briefly, the 14 day old cucumber seedlings were treated by direct drench application of 50 mL solution of 1 mM 3-pentanol. 3-pentanol bought from Sigma-Aldrich Co. was dissolved in distilled water before application. Treatments with 1 mM benzothiadiazole (BTH) and water were used as positive and negative controls, respectively.
For pathogen challenge, a culture of the compatible bacterial pathogen Pseudomonas syringae pv. lachrymans (OD600=1 in 10 mM MgCl2) was spray-challenged on cucumber leaves until run-off at 7 days after the drench application of chemicals to roots at 21 days after seeding. The severity of symptoms was scored from 0 to 5 as follows: 0, no symptoms; 1, less than 20% diseased area; 2, 21%-40% diseased area; 3, 41%-60% diseased area; 4, 61%-80% diseased area; and 5, more than 81% diseased area of the entire leaf Bacterial pathogens were cultured overnight at 28° C. in King's B medium supplemented with the appropriate antibiotics (100 μg/mL). As a positive control, roots were treated with 1 mM BTH. […] To investigate whether the 3-pentanol elicited plant immunity to aphid feeding, numbers of naturally occurring aphids (in 2011, Daejeon, Korea) were counted. Application of 1 mM BTH was used as a positive control. The total numbers of nymph and adult aphids were counted at 34 days after seeding. The experiments were repeated with similar results.

[2] = test system: bacterial leaf spot disease; experiment: ISR against naturally occurring bacterial leaf spot disease under field conditions; conditions: pepper, three months after final transplantation
Excerpt: as §1, §2

[3] = test system: Pseudomonas syringae pv. lachrymans; experiment: Angular leaf spot disease severity in cucumber; conditions: 1 mM drench, 28 days post seeding, 7 days after spray-challenge
Procedure: FIG. 7 illustrates induction of systemic resistance by 1 mM 3-pentanol against Pseudomonas syringae pv. lachrymans. The severity of symptoms was scored from 0 to 5 as follows: 0, no symptoms; 1, yellowish color; 2, chlorosis only; 3, partial necrosis and chlorosis; 4, necrosis of the inoculated area and expanded chlorosis; and 5, complete necrosis of the inoculated area. Disease severity of cucumber treated with 3-pentanol was assessed 7 days after infection with P. syringae pv. lachrymans. Water and 1 mM BTH were used as negative and positive controls, respectively. […] Error bars indicate the standard error (n=16). […]
For pathogen challenge, a culture of the compatible bacterial pathogen Pseudomonas syringae pv. lachrymans (OD600=1 in 10 mM MgCl2) was spray-challenged on cucumber leaves until run-off at 7 days after the drench application of chemicals to roots at 21 days after seeding. The severity of symptoms was scored from 0 to 5 as follows: 0, no symptoms; 1, less than 20% diseased area; 2, 21%-40% diseased area; 3, 41%-60% diseased area; 4, 61%-80% diseased area; and 5, more than 81% diseased area of the entire leaf Bacterial pathogens were cultured overnight at 28° C. in King's B medium supplemented with the appropriate antibiotics (100 μg/mL). […] The total numbers of nymph and adult aphids were counted at 34 days after seeding. […]

[4] = test system: Xanthomonas axonopodis pv. vesicatoria; experiment: ISR screening under greenhouse conditions, bacterial spot disease in pepper; conditions: irrigation, 1 mM, second screening
Procedure: FIGS. 1A and 1B illustrate the effect of the eighteen different volatile organic compounds from Bacillus amyloliquefaciens IN937a strain on plant ISR against Xanthomonas axonopodis pv. vesicatoria under greenhouse conditions. […] The positive control plant was treated with 0.5 mM benzothiadiazole (BTH). The disease occurrence rate (i.e., 0 to 5) as an indicator of ISR was measured on Day 7 following inoculation of pathogen (i.e., 0: no symptoms; 5: severe symptoms of necrosis).
In order to determine the ISR properties of the previously selected, eighteen different volatile organic compounds from the Bacillus amyloliquefaciens IN937a strain, young pepper was grown for 3 to 4 weeks after seeding and irrigated, with the compounds present, in concentrations of 10 μM or 100 nM in 50 ml volumes. One week following irrigation treatment, the plant was exposed to Xanthomonas axonopodis pv. vesicatoria at a concentration of 10^7 CFU/ml. Symptoms of disease were observed five to seven days later, and the level of disease was measured based on a scale from 0 to 5, as described above. In a second screening, four volatile substances, selected from the first screening, were incorporated into the irrigation treatment at concentrations of 1 mM, 10 μM, 0.1 μM, and 1 nM. After exposure to pathogen, symptoms of disease were observed.

Compound	disease level (ISR against bacterial spot disease) ([1]; ten days after final transplantation)	disease level (ISR against bacterial spot disease) ([1]; twenty days after final transplantation)	resistance to the disease (bacterial spot) ([1]; forty days after final transplantation)	resistance to the disease (bacterial spot) ([1]; thirty days after final transplantation)	expression level of PR gene (PR1 and PR4 genes; Day 10 after final transplantation)	expression of PR gene (PR1 and PR4 genes; from Day 20 after transplantation)	resistance to cucumber mosaic virus (cucumber mosaic virus)	number of adult aphids (aphids) [per leaf]	number of aphid nymphs (aphids) [per leaf]	resistance to bacterial leaf spot disease [2]	less symptom severity compared to water control [3] [%]	resistance to bacterial spot disease in pepper, outcome of screening [4]
CCC(O)CC [3-pentanol]	no difference compared to the control group	less than the control group	higher resistance to the disease compared to the control group	higher resistance to the disease compared to the control group	lower expression level of PR gene compared to the control group	the same or higher than that of the control group	significantly increased	1.0	21	not different among three treatment groups	24	finally selected
c1ccc2snnc2c1 [BTH, benzothiadiazole, reference compound]							almost the same	0.4	20	not different among three treatment groups		
